“And” between values parts separate entries of the source, which are not always exact repeats. Identical values can stand only once. Like-named read-outs stand apart in the source and are kept apart here.
Assays:
[1] = type: physicochemical; parameters: key to Fibril / Fibril Formation / TEM 2cat / Fibril: 1 = fibrils present; 0 non-fibrillar structures; conditions: for Fibril / Fibril Formation: 1 mg/mL, uranyl acetate stain, qualitative
[2] = Turbidity, derived count rate of scattered light; type: physicochemical; conditions: for Count Rate: derived count rate of scattered light (turbidity); for Log10 Count Rate: turbidity, derived count rate of scattered light, data of Figure 2D
[3] = Turbidity, derived count rate of scattered light; type: physicochemical; conditions: for Count Rate / kcps: derived count rate of scattered light at 633 nm, 173°, from zeta-potential measurement, 0.1 mg/mL in 1 mM KCl after 1 d at 1 mg/mL in PBS, turbidity / microscopic aggregation, mean of triplicate
Method in brief: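 One-day room-temperature aggregation at 1 mg/mL in PBS (pH 7.4) preceded measurement; samples then went into 1 mM KCl. Triplicates per sample, two independent experiments averaged.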

[4] = Fig S10 panel D, fibril category by TEM
[5] = TEM, 1 = fibrils present, 0 = non-fibrillar
[6] = TEM, 1 = fibrils present, 0 = non-fibrillar structures
[7] = category: fibrils present or non-fibrillar
[8] = Log10 of derived count rate of scattered light (turbidity)
[9] = log10 of derived count rate of scattered light (turbidity)
[10] = turbidity, Log10 of derived count rate of scattered light, Figure 3A source data
[11] = FigS12 panel A, fibril category by TEM
[12] = logarithm of count rate in kcps
[13] = turbidity, log10 of derived count rate of scattered light

Substance	TEM 2cat [1, 4]	Fibril ([1]; Fig S10 panel E)	Fibril / Fibril Formation ([1]; TEM)	Fibril [1, 5]	Fibril [1, 6]	TEM 2cat [1, 7]	Count Rate [2]	Log10 Count Rate [2]	Log10 Count Rate [3, 8]	Count Rate / kcps [3]	Log10 Count Rate [3, 9]	Log10 Count Rate [3, 10]	TEM 2cat [1, 11]	Fibril ([1]; FigS12 panel B, TEM)	Log10 Count Rate [3, 12]	further results
CEFEFQFNMWQ	1	1	1	1	1	1	186.3	2.27	2.27	186 kcps	2.27	2.27				
KIKIQIII	1	1	1	1	1	1	94.97	1.978	1.978	95 kcps	1.978	1.978				
KFKFKFQF	1	1	1	1	1	1	1036	3.015	3.015	1036 kcps	3.015	3.015				
CEIEIQINM	1	1	1	1	1		58.43	1.767	1.767	58 kcps	1.767	1.767	1	1		
KFKFQFFF	1	1	1	1	1	1	3039	3.483	3.483	3039 kcps	3.483	3.483				
KIKIQIC	1	1	1	1	1	1	980.7	2.992	2.992	981 kcps	2.992	2.992			2.992	Zeta Count Rate ([3]; mean of the 3 replicates): 980.7 kcps; Zeta Count Rate ([3]; replicate 1): 1115.50 kcps; Zeta Count Rate ([3]; replicate 2): 1268.60 kcps; Zeta Count Rate ([3]; replicate 3): 557.90 kcps
RGDKIKIQINM	1	1	1	1	1	1	57.2	1.7574	1.7574	57 kcps	1.7574	1.7574				
KAKAQANM	0		0	0	0		42.5	1.628	1.628	43 kcps	1.628	1.628	0	0	1.6	
QCKAKAQANM		0	0	0	0		204.1	2.31	2.31	204 kcps		2.31	0	0	2.3	TEM 2cat ([1]; Fig S10 panel D): 0; Log10 Count Rate [3, 13]: 2.31
CKAKAQANMWQ		0	0	0	0		8.967	0.9526	0.9526	9 kcps		0.9526	0	0	1 and 0.9528	TEM 2cat ([1]; Fig S10 panel D): 0; Log10 Count Rate [3, 13]: 0.9526
QCKFKQFF			1	1	1		225.4	2.353	2.353	225 kcps		2.353	1	1		TEM 2cat ([1]; Fig S10 panel D): 1; Log10 Count Rate [3, 13]: 2.353
QCKAKAQANMWQ		0	0	0	0		427.5	2.631	2.631	428 kcps		2.631	0	0	2.6	TEM 2cat ([1]; Fig S10 panel D): 0; Log10 Count Rate [3, 13]: 2.631
RGDKIKIQINMWQ	1	1	1	1	1	1	1554	3.1914	3.1914	1554 kcps	3.1914	3.1914				
HHHHKIKIQINMYYYY	1	1	1	1	1	1	5659	3.753	3.753	5659 kcps	3.753	3.753			3.753	
QCKFKQFFNM		1	1	1	1	1	10384.7	4.016	4.016	10385 kcps		4.016				TEM 2cat ([1]; Fig S10 panel D): 1; Log10 Count Rate [3, 13]: 4.016
KAKAKAQA	0		0	0	0		76.93	1.886	1.886	77 kcps	1.886	1.886	0	0		
CSISIQI	1	1	1	1	1		10241.1	4.01	4.01	10241 kcps	4.01	4.01	1	1	4.01	
